Source: US10953012B2, “Heterocyclic compounds for the inhibition of pask” (BioEnergenix LLC, priority 2011, dated 2021)

Columns and labels:
hPASK (kinase domain) = hPASK (kinase domain) (Homo sapiens (Human), UniProt Q96RG2); assay: PAS Kinase Luminescence Assay (Kinase-Glo), kinase domain; assay type: biochemical
Description: PAS Kinase Luminescence Assay
One assay for purified hPASK activity utilizes the Kinase-Glo Luminescent Kinase Assay (Promega), which quantifies the amount of ATP remaining in solution following kinase reaction. The assay is carried out in a 96-well plate format and is performed by adding a volume of Kinase-Glo Reagent (Promega, catalog #V3771) equal to the volume of solution in the well of a completed kinase reaction. Kinase-Glo reagent contains Luciferase and its substrate. After addition to a kinase reaction it allows to measure luminescence. The amount of ATP left in solution at the time of Kinase-Glo Plus addition is directly proportional to the luminescence that is measured in each well, and inversely correlated with kinase activity.
Purified hPASK from insect cells (0.02 μg) is added to a 50 μL reaction mix containing 40 mM HEPES (pH 7.0), 100 mM KCl, 5 mM MgCl2, 1 mM DTT and 1 μg of MBP protein. Inhibitory compounds are then added and the mixture is incubated for 10 min at 25° C. before adding 5 μL of ATP (at desired concentration). The reaction is allowed to proceed at 25° C. for 1 hour before adding 50 μL of Kinase-Glo reagent. The luminescence is measured as soon as 10 minutes after Kinase-Glo reagent is added.
Results are shown below in Table 1, where NT means not tested.

CK2a2 = CK2a2 (Homo sapiens (Human), UniProt P19784); assay: Biochemical Assay for CK2 Activity; settings: 33P-ATP radiochemical assay; read-out: IC50 CK2 a2
Sequence of CK2a2 (P19784 whole entry): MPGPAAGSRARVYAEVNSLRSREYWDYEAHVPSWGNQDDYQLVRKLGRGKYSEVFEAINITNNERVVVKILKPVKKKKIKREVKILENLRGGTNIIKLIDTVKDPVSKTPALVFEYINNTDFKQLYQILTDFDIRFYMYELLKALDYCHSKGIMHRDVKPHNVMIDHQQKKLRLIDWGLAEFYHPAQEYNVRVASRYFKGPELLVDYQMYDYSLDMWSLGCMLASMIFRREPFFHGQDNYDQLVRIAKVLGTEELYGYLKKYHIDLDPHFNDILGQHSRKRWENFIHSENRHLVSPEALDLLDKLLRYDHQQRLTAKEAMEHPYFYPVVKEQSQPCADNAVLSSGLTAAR
How it was run: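 GST-tagged full-length human CK2a2 from insect cells (1.2 nM) with 20 μM RRRDDDSDDD peptide, in pH 7.5 HEPES buffer with MgCl2, DTT and 1% DMSO. Reactions started with ³³P-ATP were run for 120 min at room temperature. Substrate phosphorylation was measured by P81 phosphocellulose filter binding and scintillation counting.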

PASK [1] = target: PASK (UniProt #Q96RG2; residues 879-1323) (Homo sapiens (Human), UniProt Q96RG2); assay: PASK ATP Radiochemical Assay; assay type: biochemical; settings: 33P-ATP radiochemical assay; read-out: IC50 Kinase Domain
Sequence of PASK (UniProt #Q96RG2; residues 879-1323) (Homo sapiens (Human), UniProt Q96RG2) (Q96RG2 879-1323): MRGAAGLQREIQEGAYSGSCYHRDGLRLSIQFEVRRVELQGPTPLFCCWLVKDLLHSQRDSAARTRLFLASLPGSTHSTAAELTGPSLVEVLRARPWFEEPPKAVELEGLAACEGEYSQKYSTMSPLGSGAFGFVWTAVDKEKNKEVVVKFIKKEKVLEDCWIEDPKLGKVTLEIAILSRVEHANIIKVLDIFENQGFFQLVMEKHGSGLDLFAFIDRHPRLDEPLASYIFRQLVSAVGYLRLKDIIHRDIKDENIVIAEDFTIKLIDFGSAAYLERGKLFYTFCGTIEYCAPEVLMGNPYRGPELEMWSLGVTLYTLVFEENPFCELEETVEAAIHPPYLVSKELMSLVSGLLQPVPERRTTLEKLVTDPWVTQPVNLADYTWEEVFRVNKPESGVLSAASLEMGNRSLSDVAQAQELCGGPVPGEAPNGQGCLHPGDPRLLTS
How it was run: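 Radiometric kinase assay: GST-tagged PASK (5 nM final) from insect cells with Myelin Basic Protein (20 μM) in HEPES pH 7.5 buffer, 1% DMSO; reaction started with ^33P-ATP, 120 min at room temperature. Substrate phosphorylation captured on P81 paper and read by scintillation counting.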

PASK [2] = target: PASK (Homo sapiens (Human), UniProt Q96RG2); assay: PAS Kinase FRET Assay; assay type: biochemical; settings: TR-FRET assay; read-out: IC50 Kinase Domain
Sequence of PASK (Homo sapiens (Human), UniProt Q96RG2) (Q96RG2 999-1251): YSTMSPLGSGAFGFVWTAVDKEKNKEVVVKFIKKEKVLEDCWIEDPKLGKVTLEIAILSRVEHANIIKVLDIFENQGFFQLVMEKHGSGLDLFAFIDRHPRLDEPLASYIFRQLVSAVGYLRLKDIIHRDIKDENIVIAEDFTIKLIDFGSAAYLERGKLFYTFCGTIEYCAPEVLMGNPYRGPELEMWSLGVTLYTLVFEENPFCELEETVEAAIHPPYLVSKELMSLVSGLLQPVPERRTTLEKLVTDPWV
How it was run: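 TR-FRET read-out (665/615 nm) of ULight-peptide phosphorylation by PASK, detected with Eu-labelled anti-phospho antibody. Compound, kinase and substrate/ATP reacted 2 h at 25 °C in the dark in 50 mM HEPES, 10 mM MgCl2, 1 mM EGTA, 0.01% Tween-20, 2 mM DTT. Eleven-point dilution series made at 4× final.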

Sequence of hPASK (kinase domain) (Q96RG2 999-1251): as above

Row | IC50 (hPASK (kinase domain)) | IC50 (CK2a2) | IC50 (PASK [1]) | IC50 (PASK [2]) | SMILES
1 | ≥ 10 µM | – | – | – | COc1ccc(-c2c(C)nn3c(=O)cc(-c4ccccc4)[nH]c23)cc1 [Example 20, 3-(4-Methoxy-phenyl)-2-methyl-5-phenyl-4H-pyrazolo[1,5-a]pyrimidin-7-one]
2 | ≤ 10 µM | – | – | – | Cc1nn2c(=O)cc(-c3ccc4c(c3)OCCO4)[nH]c2c1-c1ccccc1 [Example 41, 5-(2,3-Dihydrobenzo[b][1,4]dioxin-6-yl)-2-methyl-3-phenylpyrazolo[1,5-a]pyrimidin-7(4H)-one]
3 | – | ≤ 10 µM | ≤ 10 µM | ≤ 10 µM | O=c1cc(-c2ccc3[nH]nnc3c2)[nH]c2c(-c3cccnc3)cnn12 [Example 213, 5-(1H-Benzo[d][1,2,3]triazol-5-yl)-3-(pyridin-3-yl)pyrazolo[1,5-a]pyrimidin-7(4H)-one]
4 | – | ≤ 10 µM | ≤ 10 µM | ≤ 10 µM | O=c1cc(-c2ccc3[nH]nnc3c2)[nH]c2c(-c3ccc(Cl)cc3)cnn12 [Example 218, 5-(1H-Benzo[d][1,2,3]triazol-5-yl)-3-(4-chlorophenyl)pyrazolo[1,5-a]pyrimidin-7(4H)-one]
5 | – | ≤ 10 µM | ≤ 10 µM | ≤ 10 µM | CCCNC(=O)c1c(N)nn2c(=O)cc(-c3ccc4[nH]nnc4c3)[nH]c12 [Example 223, 2-Amino-5-(1H-benzo[d][1,2,3]triazol-5-yl)-7-oxo-N-propyl-4,7-dihydropyrazolo[1,5-a]pyrimidine-3-carboxamide]
6 | – | ≤ 10 µM | ≤ 10 µM | ≤ 10 µM | CCCNC(=O)c1c(N)nn2c(=O)cc(-c3ccc4[nH]nc(C)c4c3)[nH]c12 [Example 224, 2-Amino-5-(3-methyl-1H-indazol-5-yl)-7-oxo-N-propyl-4,7-dihydropyrazolo[1,5-a]pyrimidine-3-carboxamide]
7 | – | ≤ 10 µM | ≤ 10 µM | ≤ 10 µM | CCCNC(=O)c1c(N)nn2c(=O)cc(-c3ccc(Cl)cc3)[nH]c12 [Example 225, 2-Amino-5-(4-chlorophenyl)-7-oxo-N-propyl-4,7-dihydropyrazolo[1,5-a]pyrimidine-3-carboxamide]
8 | – | ≤ 10 µM | ≤ 10 µM | ≤ 10 µM | CCCNC(=O)c1c(O)nn2c(=O)cc(-c3ccc4c(c3)OCO4)[nH]c12 [Example 227, 5-(Benzo[d][1,3]dioxol-5-yl)-2-hydroxy-7-oxo-N-propyl-4,7-dihydropyrazolo[1,5-a]pyrimidine-3-carboxamide]
9 | – | ≤ 10 µM | ≤ 10 µM | ≤ 10 µM | COc1c(-c2cc(=O)n3nc(O)c(-c4ccccn4)c3[nH]2)ccc2c1OCO2 [Example 235, 2-Hydroxy-5-(4-methoxybenzo[d][1,3]dioxol-5-yl)-3-(pyridin-2-yl)pyrazolo[1,5-a]pyrimidin-7(4H)-one]
10 | – | ≥ 10 µM | ≤ 10 µM | ≤ 10 µM | COc1cc2[nH]nnc2cc1-c1cc(=O)n2nc(N)c(-c3ccccn3)c2[nH]1 [Example 243, 2-Amino-5-(6-methoxy-1H-benzo[d][1,2,3]triazol-5-yl)-3-(pyridin-2-yl)pyrazolo[1,5-a]pyrimidin-7(4H)-one]

Further lines, the molecule ahead of its results:

Row | SMILES | IC50 (hPASK (kinase domain)) | IC50 (CK2a2) | IC50 (PASK [1]) | IC50 (PASK [2])
11 | Cc1cc(=O)n2nc(-c3cccc(Br)c3)cc2[nH]1 [Example 4, 2-(3-Bromo-phenyl)-5-methyl-4H-pyrazolo[1,5-a]pyrimidin-7-one] | ≤ 10 µM | – | – | –
12 | O=c1cc(-c2ccc3c(c2)OCCO3)[nH]c2c(-c3ccccc3)cnn12 [Example 40, 5-(2,3-Dihydrobenzo[b][1,4]dioxin-6-yl)-3-phenylpyrazolo[1,5-a]pyrimidin-7(4H)-one] | ≤ 10 µM | ≤ 10 µM | – | –
13 | O=c1cc(-c2ccc3c(c2)OCO3)[nH]c2c(-c3ccccc3)cnn12 [Example 42, 5-(Benzo[d][1,3]dioxol-5-yl)-3-phenylpyrazolo[1,5-a]pyrimidin-7(4H)-one] | ≤ 10 µM | – | – | –
14 | O=c1cc(-c2ccc3c(c2)OCO3)[nH]c2c(-c3cccnc3)cnn12 [Example 46, 5-(Benzo[d][1,3]dioxol-5-yl)-3-(pyridin-3-yl)pyrazolo[1,5-a]pyrimidin-7(4H)-one] | ≤ 10 µM | – | – | –
15 | Cc1nn2c(=O)cc(-c3ccc4c(c3)OCO4)[nH]c2c1-c1cccnc1 [Example 49, 5-(Benzo[d][1,3]dioxol-5-yl)-2-methyl-3-(pyridin-3-yl)pyrazolo[1,5-a]pyrimidin-7(4H)-one] | ≤ 10 µM | – | – | –
16 | O=c1cc(-c2ccccc2)[nH]c2c(-c3ccccn3)cnn12 [Example 52, 5-Phenyl-3-(pyridin-2-yl)pyrazolo[1,5-a]pyrimidin-7(4H)-one] | ≤ 10 µM | – | – | –
17 | O=c1cc(-c2cccnc2)[nH]c2c(-c3ccc(F)cc3)cnn12 [Example 78, 3-(4-Fluorophenyl)-5-(pyridin-3-yl)pyrazolo[1,5-a]pyrimidin-7(4H)-one] | ≤ 10 µM | – | – | –
18 | CCc1nn2c(=O)cc(-c3ccc4[nH]nnc4c3)[nH]c2c1-c1ccccn1 [Example 201, 5-(1H-benzo[d][1,2,3]triazol-5-yl)-2-ethyl-3-(pyridin-2-yl)pyrazolo[1,5-a]pyrimidin-7(4H)-one] | – | ≤ 10 µM | ≤ 10 µM | ≤ 10 µM
19 | CC(=O)Nc1nn2c(=O)cc(-c3ccc4c(cnn4C)c3)[nH]c2c1-c1ccccn1 [Example 205, N-(5-(1-Methyl-1H-indazol-5-yl)-7-oxo-3-(pyridin-2-yl)-4,7-dihydropyrazolo[1,5-a]pyrimidin-2-yl)acetamide] | – | ≤ 10 µM | ≤ 10 µM | ≤ 10 µM
20 | Cc1nn2c(=O)cc(-c3ccc4c(c3)OCO4)[nH]c2c1Cc1ccccn1 [Example 210, 5-(Benzo[d][1,3]dioxol-5-yl)-2-methyl-3-(pyridin-2-ylmethyl)pyrazolo[1,5-a]pyrimidin-7(4H)-one] | – | ≤ 10 µM | ≤ 10 µM | ≤ 10 µM
21 | CCCNC(=O)c1cnn2c(=O)cc(-c3ccc4[nH]nnc4c3)[nH]c12 [Example 214, 5-(1H-Benzo[d][1,2,3]triazol-5-yl)-7-oxo-N-propyl-4,7-dihydropyrazolo[1,5-a]pyrimidine-3-carboxamide] | – | ≤ 10 µM | ≤ 10 µM | ≤ 10 µM
22 | Nc1nn2c(=O)cc(-c3ccc4[nH]nnc4c3)[nH]c2c1-c1ccc(Cl)cc1 [Example 217, 2-Amino-5-(1H-benzo[d][1,2,3]triazol-5-yl)-3-(4-chlorophenyl)pyrazolo[1,5-a]pyrimidin-7(4H)-one] | – | ≤ 10 µM | ≤ 10 µM | ≤ 10 µM
23 | COc1c(-c2cc(=O)n3nc(N)c(-c4ccccn4)c3[nH]2)ccc2c1OCO2 [Example 234, 2-Amino-5-(4-methoxybenzo[d][1,3]dioxol-5-yl)-3-(pyridin-2-yl)pyrazolo[1,5-a]pyrimidin-7(4H)-one] | – | ≤ 10 µM | ≤ 10 µM | ≤ 10 µM
24 | COc1c(-c2cc(=O)n3nc(C)c(-c4ccccn4)c3[nH]2)ccc2c1OCO2 [Example 237, 5-(4-Methoxybenzo[d][1,3]dioxol-5-yl)-2-methyl-3-(pyridin-2-yl)pyrazolo[1,5-a]pyrimidin-7(4H)-one] | – | ≤ 10 µM | ≤ 10 µM | ≤ 10 µM
25 | COc1c(-c2cc(=O)n3ncc(-c4ccccn4)c3[nH]2)ccc2[nH]nnc12 [Example 245, 5-(4-Methoxy-1H-benzo[d][1,2,3]triazol-5-yl)-3-(pyridin-2-yl)pyrazolo[1,5-a]pyrimidin-7(4H)-one] | – | ≤ 10 µM | ≤ 10 µM | ≤ 10 µM
26 | O=c1cc(-c2cc3nn[nH]c3cc2F)[nH]c2c(-c3ccccn3)cnn12 [Example 249, 5-(6-Fluoro-1H-benzo[d][1,2,3]triazol-5-yl)-3-(pyridin-2-yl)pyrazolo[1,5-a]pyrimidin-7(4H)-one] | – | ≤ 10 µM | ≤ 10 µM | ≤ 10 µM
27 | O=c1cc(-c2ccc(-c3ncco3)cc2)[nH]c2c(-c3ccccn3)cnn12 [Example 254, 5-(4-(Oxazol-2-yl)phenyl)-3-(pyridin-2-yl)pyrazolo[1,5-a]pyrimidin-7(4H)-one] | – | ≥ 10 µM | ≤ 10 µM | ≤ 10 µM
28 | N#Cc1ccc(-c2cc(=O)n3ncc(-c4ccccn4)c3[nH]2)cc1 [Example 256, 4-(7-Oxo-3-(pyridin-2-yl)-4,7-dihydropyrazolo[1,5-a]pyrimidin-5-yl)benzonitrile] | – | ≥ 10 µM | ≤ 10 µM | ≤ 10 µM
